The source of these data is ChEMBL document CHEMBL3507680, “University of Dundee, Gates Library screen for HepG2 cell viability”.

This series can be described thus: Human HepG2 cell viability assay in 384 well format. In kind it is toxicity, cell-based. Also noted: dose 125 nL, time 70.5 hour; concentration not given beside the values. Particulars: HepG2 cells, read-out: Inhibition.
For `CCn1ccnc1C1CCN(C(=O)Nc2ccc(OC)cc2)CC1`, the cytotoxicity at 70.5 h turned out to be 29.5%.
The same measure for `CCc1nc(N2CCCC(CCCOC)(C(=O)O)C2)ncc1C` (stereo not drawn): -10.1%.
Consider `Cc1oc(C)c(C(=O)NS(=O)(=O)c2ccc3c(c2)OCCCO3)c1C`, for which the cytotoxicity at 70.5 h was -27.5%.
For `COc1ccc(NC(=O)N(CCO)Cc2ccsc2)cc1`, the cytotoxicity at 70.5 h is -3.63%.
For `O=C(O)c1cccnc1CN1CCCCC1CCc1ccccn1` (stereo not drawn) the value was -14.4%; for `CC(=O)N1CCOC(c2c(C(=O)NC(C)(C)C)sc3ccccc23)C1` (stereo not drawn), -13.1%; for `CC(=O)N(Cc1ncc(C)o1)C1CCN(Cc2ccccc2C#N)C1` (stereo not drawn), -3.02%.
For `Cc1ccc(N2CC[C@@H]3CN(Cc4c[nH]cn4)C[C@@H]3C2)nn1` the value was 11%; for `COc1ccccc1OCCN1CCC(N2CCNC2=O)CC1`, 19.7%; for `Cc1cc(C)nc(Nc2cc(C)nc(C3CCN(C(C)C)C3)n2)n1` (stereo not drawn), -5.15%.
For `CCc1nnc(C2Cc3ccccc3CN2Cc2nc(C)no2)o1` (stereo not drawn) the value was -3.78%; for `CN(C)C(=O)c1ccc2ccc(N3CCN(CC4CC4)CC3)n2c1`, 19.2%.
With `CC(=O)c1ccc(Cl)c(Cl)c1OCC(=O)NCC(F)(F)F`, the cytotoxicity at 70.5 h is -8.87%.
The same measure for `Cc1cc(C)n(CC2CN(CC(=O)NCc3ccccn3)CCO2)n1` (stereo not drawn): -2.74%; for `Cc1cccc(OC2(C(=O)O)CCN(C(=O)CCc3ccco3)CC2)c1`: 30.3%; for `COC[C@@]12CCO[C@@H]1CCN(C(=O)Cc1ccccc1C)C2`: -3.36%.
For `Cc1nc(C)n(CC2CN(CC(=O)Nc3nccs3)CCO2)n1` (stereo not drawn) the value was -3.11%.
For `CCC1CCCCN1S(=O)(=O)c1c(C)noc1C` (stereo not drawn) the value was -7.69%; for `COCc1cccc(CNC(=O)c2c(C)noc2C(C)C)c1`, 10.6%.
Turning to `CC(=O)N1C[C@@H]2CC[C@H](C1)N(S(=O)(=O)c1ccc(F)cc1Cl)C2`, the cytotoxicity at 70.5 h was -6.08%.
The same measure for `N#Cc1ccc(NC2CCN(CC(F)F)CC2)c(F)c1`: -15.5%; for `Cc1cccc(CN2C[C@@H]3COC[C@]3(CNC(=O)c3ccccc3)C2)n1`: -12.2%.
For `CSc1ncc(C(=O)N2C[C@@H](NC(C)=O)[C@H](c3ccc(C)cc3)C2)cn1` the value was -5.41%; for `CNC(=O)[C@@H]1C[C@@H]2CCN(Cc3ccoc3)C[C@H]2O1`, -6.85%.
For `CC(C)CCN1C2(CCN(C(=O)CN(C)C)C2)c2ccccc2S1(=O)=O` (stereo not drawn) the value was -5.18%; for `COC(=O)N1CCc2ccccc2C1C(=O)NCc1ccccn1` (stereo not drawn), 0.0153%; for `NS(=O)(=O)N1CCc2ccc(NC(=O)Cc3ccc(F)cc3)cc21`, 6.47%.
As to `CS(=O)(=O)N1CCC2(CC1)COC(COc1ccccn1)C2` (stereo not drawn), the cytotoxicity at 70.5 h is -12.3%.
As to `Cc1noc(CN(C)c2nc(-c3ccco3)nc3c2CCN(C)CC3)n1`, the cytotoxicity at 70.5 h is -12.8%.
As for `Cc1nc(CN(C)c2nccc(C(F)(F)F)n2)cs1`, the cytotoxicity at 70.5 h is -7.33%.
The same measure for `CC(=O)N1Cc2ccccc2CC1C(=O)Nc1ccc(C)cn1` (stereo not drawn): -15.7%; for `Cc1ccoc1C(=O)N1CCc2ncnc(-c3cnn(C)c3)c2CC1`: 24.7%.
The same measure for `CCS(=O)(=O)NC(CCSC)C(=O)Nc1ccccc1C` (stereo not drawn): -92%.
Regarding `CN(C(=O)c1cccnc1OCC(F)F)c1ccc2c(c1)CCO2`, the cytotoxicity at 70.5 h was -9.98%.
The same measure for `O=C(NCc1ccco1)[C@@H]1CC[C@@H]2[C@@H](CCN2Cc2ccc(F)cc2)O1`: -5.82%.
For `Cc1cc(Br)ccc1C(=O)N(C)CCNS(C)(=O)=O` the value was -6.05%; for `Cn1cnc(S(=O)(=O)N2CCCCc3ccccc32)c1`, 1.57%; for `CCN(CC)C(=O)CS(=O)(=O)c1cc(OC)c(OC)cc1C`, -9.5%.
